GI50 and TGI data for ten molecules are collected here from PubChem BioAssay (NCI).

Among the test systems are TK-10 renal; SF-268 CNS; NCI-H226 lung; U251 CNS; OVCAR-5 ovarian; PC-3 prostate; HCC-2998 colon; MALME-3M melanoma; SF-295 CNS; HS 578T breast; RPMI-8226 leukemia.
What all share (test): NCI-60 cell line screen, 48 h

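Interpolation was linear, between the two tested concentrations surrounding the appropriate level; five concentrations were tested over 48 hours in 96-well plates. GI50: concentration for 50% inhibition of growth. TGI is the concentration that stops growth completely.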

Regarding `C=C(C)[C@@H]1CC[C@]2(C(=O)NC3CCCCC3)CC[C@]3(C)[C@H](CC[C@@H]4[C@@]5(C)CCCNC(C)(C)[C@@H]5CC[C@]43C)[C@@H]12`, the GI50 was 1.87 µM in the experiment on TK-10 renal, 5.29 µM in the experiment with SF-268 CNS and 4830 nM in the experiment on NCI-H226 lung. Also, the TGI with TK-10 renal is 3.6 µM; in the experiment with SF-268 CNS, 26 µM; in the experiment with NCI-H226 lung, 36.2 µM.
With `Cn1c(=O)c(-c2ccccc2)c(N=[N+]=[N-])c2ccccc21`, the TGI in the experiment with TK-10 renal is above 100 µM; with SF-268 CNS, above 100 µM; in the experiment with U251 CNS, above 100 µM; with OVCAR-5 ovarian, above 100 µM; in the experiment with PC-3 prostate it was above 100 µM; in the experiment with HCC-2998 colon, 47 µM. For the same molecule, the TGI in the experiment with MALME-3M melanoma was 87.8 µM; with SF-295 CNS, above 100 µM; with NCI-H226 lung it was above 100 µM; in the experiment with HS 578T breast, above 100 µM.
`CC1(C)N=C(N)N=C(N)N1c1ccc(CCc2ccccc2)cc1`: the TGI in the experiment on SF-268 CNS was above 65 µM; in the experiment on U251 CNS, above 100 µM; in the experiment with OVCAR-5 ovarian, above 88.2 µM; with HCC-2998 colon, 42.1 µM; with MALME-3M melanoma, above 80.2 µM; in the experiment with RPMI-8226 leukemia, above 100 µM. Moreover, the results for the TGI in the experiment with SF-295 CNS and with NCI-H226 lung were above 100 µM and 59.3 µM, respectively.
Turning to `CCC(/C=C/C1OC(=O)C=CC1C)=C\C(C)C/C=C/C(C)=C/C(C)C(=O)C(C)C(O)C(C)C/C(C)=C/C(=O)O` (stereo not drawn), the GI50 was 1.89 µM in the experiment with SF-268 CNS; below 1 pM in the experiment on U251 CNS; below 1 pM in the experiment on OVCAR-5 ovarian; 2.44 µM in the experiment with HCC-2998 colon; 0.000217 µM in the experiment with MALME-3M melanoma; 3.11 pM in the experiment with RPMI-8226 leukemia. For the same molecule, the GI50 was 0.0179 nM in the experiment with SF-295 CNS and 0.00172 nM with NCI-H226 lung. The TGI in the experiment on SF-268 CNS is 7.64 µM; in the experiment with U251 CNS, 5.89 µM; with OVCAR-5 ovarian, 15.5 µM; in the experiment on MALME-3M melanoma, 6.29 µM; with SF-295 CNS, 2.39 µM; in the experiment with HS 578T breast it was 0.000594 µM.
As for `COc1ccc2cc(/C=N/NC(=O)Nc3ccccc3)ccc2c1`, the TGI in the experiment on TK-10 renal, in the experiment with U251 CNS, in the experiment on OVCAR-5 ovarian, in the experiment on PC-3 prostate, in the experiment with HCC-2998 colon and in the experiment with MALME-3M melanoma was above 100 µM each time. Further, the TGI in the experiment on RPMI-8226 leukemia, in the experiment with SF-295 CNS, in the experiment on NCI-H226 lung and in the experiment with HS 578T breast was above 100 µM in each case.
Take `C[C@H](CCC(=O)O)[C@H]1CC[C@H]2[C@@H]3CC[C@@H]4C[C@H](O)CC[C@]4(C)[C@H]3C[C@H](O)[C@]12C`: the TGI in the experiment with TK-10 renal, in the experiment with SF-268 CNS, in the experiment on U251 CNS, in the experiment with OVCAR-5 ovarian, with PC-3 prostate and in the experiment on HCC-2998 colon was above 100 µM throughout. Besides, the TGI in the experiment with MALME-3M melanoma is above 100 µM; in the experiment on RPMI-8226 leukemia, 57.6 µM; in the experiment on SF-295 CNS, 38.9 µM; in the experiment on NCI-H226 lung it was above 100 µM; with HS 578T breast, above 100 µM.
Regarding `CC1(CCOCc2ccccc2)NC(=O)NC1=O` (stereo not drawn), the TGI with TK-10 renal, with SF-268 CNS, in the experiment on U251 CNS, in the experiment with OVCAR-5 ovarian, with PC-3 prostate and with HCC-2998 colon was above 100 µM in each case. Also, the TGI in the experiment on MALME-3M melanoma, in the experiment with SF-295 CNS, in the experiment on NCI-H226 lung and in the experiment with HS 578T breast was above 100 µM each time.
Regarding `Cc1[nH]nc(C(F)(F)F)c1N=NN1CCOCC1`, the TGI in the experiment with TK-10 renal was found to be 26.7 µM; in the experiment with SF-268 CNS, 26.8 µM; in the experiment with U251 CNS, 27.7 µM; in the experiment on OVCAR-5 ovarian, 41.7 µM; in the experiment on PC-3 prostate, 24.8 µM; in the experiment with HCC-2998 colon, 6.11 µM. Besides, the TGI in the experiment on MALME-3M melanoma turned out to be 31.3 µM; in the experiment on RPMI-8226 leukemia, 5.06 µM; with SF-295 CNS it was 28.1 µM; with NCI-H226 lung, 30.4 µM; in the experiment with HS 578T breast, 40.5 µM.
As to `c1ccc(CCNc2ccccn2)nc1`, the TGI in the experiment with TK-10 renal, with SF-268 CNS, with U251 CNS, in the experiment on OVCAR-5 ovarian, in the experiment with PC-3 prostate and in the experiment with HCC-2998 colon was above 100 µM throughout. Moreover, the TGI in the experiment on MALME-3M melanoma, in the experiment on SF-295 CNS, in the experiment with NCI-H226 lung and with HS 578T breast was above 100 µM in each case.
For the molecule `CC(OC(C)(C)C)[C@H](NC(=O)OCC(Cl)(Cl)Cl)C(=O)O` (stereo partly drawn), the TGI in the experiment with TK-10 renal, with SF-268 CNS, in the experiment with U251 CNS, in the experiment with OVCAR-5 ovarian, with HCC-2998 colon and in the experiment on MALME-3M melanoma was above 100 µM each time. Besides, the TGI with RPMI-8226 leukemia and with SF-295 CNS was above 100 µM in each case.
